Converted amounts (≈) assume the structure as drawn. The source made the active and inactive calls. No cut-off for these calls is given here. Bridge positions count the residues as written; N and C are the ends. Square brackets hold non-standard residues; d marks the D form. Peptide text beside a SMILES is read from it. * marks the point of attachment. X1 = CC[C@H](C)CCCCC(=O)*; Dab = NCC[C@H](N)C(=O)O
Experiments:
[1] = tested on: Pseudomonas aeruginosa; experiment: Antimicrobial activity against clinical isolate CF333-2007 Pseudomonas aeruginosa DK2 measured after 18 hrs in presence of polymyxin B by microbroth dilution assay; assay type: functional
[2] = tested on: Pseudomonas aeruginosa; experiment: Antimicrobial activity against clinical isolate CF333-2007 Pseudomonas aeruginosa DK2 assessed as polymyxin B MIC measured after 18 hrs by microbroth dilution assay; assay type: functional
[3] = tested on: Pseudomonas aeruginosa; experiment: Antimicrobial activity against clinical isolate CF333-2007 Pseudomonas aeruginosa DK2 measured after 18 hrs by microbroth dilution assay; assay type: functional
[4] = tested on: Pseudomonas aeruginosa; experiment: Synergistic antibacterial activity against clinical isolate CF333-2007 Pseudomonas aeruginosa DK2 assessed as fractional inhibitory concentration index incubated for 18 hrs in presence of Polymyxin B; assay type: functional
[5] = tested on: Pseudomonas aeruginosa; experiment: Antibacterial activity against Pseudomonas aeruginosa PAO1 assessed as reduction in bacterial growth at 2 ug/ml measured after 24 hrs in presence of polymyxin B by time kill assay; assay type: functional; conditions: dose 2 µg/ml
[6] = tested on: Klebsiella pneumoniae; experiment: Synergistic antibacterial activity against Klebsiella pneumoniae 674 assessed as polymyxin MIC at 8 ug/ml; assay type: functional; conditions: dose 8 µg/ml
[7] = tested on: Escherichia coli; experiment: Synergistic antibacterial activity against Escherichia coli 15017 assessed as polymyxin MIC at 8 ug/ml; assay type: functional; conditions: dose 8 µg/ml
[8] = tested on: Pseudomonas aeruginosa; experiment: Synergistic antibacterial activity against Pseudomonas aeruginosa PAO1 infected in Caenorhabditis elegans N2 worms assessed as worms survival at 4 to 8 ug/ml in presence of polymyxin B; assay type: functional; conditions: dose 4-8 µg/ml; at 4 to 8 µg/mL
[9] = Acute toxicity in ICR mouse assessed as mortality at 50 mg/kg, ip administered as single dose; assay type: organism-based; conditions: in vivo
[10] = Acute toxicity in ICR mouse assessed as effect on lungs at 50 mg/kg, ip administered as single dose measured after 7 days; assay type: organism-based, Lung; conditions: in vivo, 168 h, time 7 day
[11] = Acute toxicity in ICR mouse assessed as effect on kidney at 50 mg/kg, ip administered as single dose measured after 7 days; assay type: organism-based; conditions: in vivo, 168 h, time 7 day
[12] = Acute toxicity in ICR mouse assessed as effect on liver at 50 mg/kg, ip administered as single dose measured after 7 days; assay type: organism-based; conditions: in vivo, 168 h, time 7 day
[13] = Acute toxicity in ICR mouse assessed as effect on heart at 50 mg/kg, ip administered as single dose measured after 7 days; assay type: organism-based; conditions: in vivo, 168 h, time 7 day
[14] = Acute toxicity in ICR mouse assessed as effect on spleen at 50 mg/kg, ip administered as single dose measured after 7 days; assay type: organism-based; conditions: in vivo, 168 h, time 7 day
[15] = tested on: Pseudomonas aeruginosa; experiment: Inhibition of PA3552-lux expression in Pseudomonas aeruginosa DK2 at 1 ug/ml measured after 5 to 8 hrs by microplate reader assay; assay type: functional; conditions: dose 1.0 µg/ml, time 5-8 hrs
[16] = tested on: Pseudomonas aeruginosa; experiment: Antibacterial activity against Pseudomonas aeruginosa DK2 assessed as reduction in bacterial growth at 4 ug/ml measured after 24 hrs in presence […] of polymyxin B by time kill assay; assay type: functional; conditions: dose 4 µg/ml
[17] = tested on: Pseudomonas aeruginosa; experiment: Suppression of polymyxin drug resistance development against pseudomonas aeruginosa DK2 at 4 ug/ml in presence of polymyxin B after repeated passaging for 14 days; assay type: functional; conditions: dose 4 µg/ml; time 14 day
[18] = tested on: Klebsiella pneumoniae; experiment: Synergistic antibacterial activity against Klebsiella pneumoniae 674 assessed as fold decrease in polymyxin MIC at 8 ug/ml; assay type: functional; conditions: dose 8 µg/ml
[19] = tested on: Acinetobacter baumannii; experiment: Synergistic antibacterial activity against Acinetobacter baumannii 186 assessed as fold decrease in polymyxin MIC at 8 ug/ml; assay type: functional; conditions: dose 8 µg/ml
[20] = tested on: Escherichia coli; experiment: Synergistic antibacterial activity against Escherichia coli 15017 assessed as fold decrease in polymyxin MIC at 8 ug/ml; assay type: functional; conditions: dose 8 µg/ml
[21] = tested on: Pseudomonas aeruginosa; experiment: Antibacterial activity against Pseudomonas aeruginosa PAO1 infected in Caenorhabditis elegans N2 worms assessed as colonization of bacteria on intestinal tract at 8 ug/ml in presence of polymyxin B; assay type: functional, organism-based; conditions: dose 8.0 µg/ml
[22] = Acute toxicity in ICR mouse assessed as mortality at 50 mg/kg, ip administered as single dose measured after 2 hrs; assay type: organism-based; conditions: in vivo, read-out: Activity
[23] = Acute toxicity in ICR mouse assessed as effect on body weight at 50 mg/kg, ip administered as single dose measured daily for 7 days; assay type: organism-based; conditions: in vivo, 168 h, time 7 day
[24] = tested on: Pseudomonas aeruginosa; experiment: Synergistic inhibition of PA3552-lux expression in Pseudomonas aeruginosa DK2 at 1 ug/ml measured after 5 to 8 hrs in presence of polymyxin B by microplate reader assay; assay type: functional, organism-based; conditions: dose 1.0 µg/ml, time 5-8 hrs
[25] = tested on: Pseudomonas aeruginosa; experiment: Antibacterial activity against Pseudomonas aeruginosa DK2 assessed as reduction in bacterial growth at 0.5 ug/ml measured after 24 hrs by time kill assay; assay type: functional; conditions: dose 0.5 µg/ml
[26] = tested on: Pseudomonas aeruginosa; experiment: Drug resistance against pseudomonas aeruginosa DK2 assessed as increase in MIC measured after repeated passaging for 14 days; assay type: functional; conditions: DK2, 336 h, time 14 day
[27] = tested on: Pseudomonas aeruginosa; experiment: Drug resistance against pseudomonas aeruginosa DK2 assessed as fold increase in MIC measured after repeated passaging for 14 days; assay type: functional; conditions: time 14 day
[28] = tested on: Pseudomonas aeruginosa; experiment: Antibacterial activity against Pseudomonas aeruginosa PAO1 infected in Caenorhabditis elegans N2 worms at 16 ug/ml; assay type: functional, organism-based; conditions: dose 16.0 µg/ml

| SMILES | MIC [1] | MIC [2] | MIC [3] | fractional inhibitory concentration index (FICI) [4] | further results |
| --- | --- | --- | --- | --- | --- |
| O=C(Nc1ccc(O[C@H]2O[C@H](CO)[C@H](O)[C@H](O)[C@H]2O)cc1Cl)c1cc(Cl)ccc1O | > 32 µg/mL | > 32 µg/mL | > 1020 µg/mL |  |  |
| O=C(Nc1ccccc1)c1cc(Cl)ccc1O | 4 µg/mL | 2 µg/mL | > 1020 µg/mL | 0.012 |  |
| O=C(Nc1cccnc1)c1cc(Cl)ccc1O | > 32 µg/mL | > 32 µg/mL | > 1020 µg/mL |  |  |
| O=C(Nc1ccc([N+](=O)[O-])cc1Cl)c1ccc(O)cc1O | > 32 µg/mL | > 32 µg/mL | > 1020 µg/mL |  |  |
| O=C(Nc1ccc([N+](=O)[O-])cc1Cl)c1cccc(Br)c1O | 16 µg/mL | 1 µg/mL |  | 0.254 |  |
| O=C(Nc1ccc([N+](=O)[O-])cc1Cl)c1ccc(Br)cc1O | 8 µg/mL | 1 µg/mL | > 1020 µg/mL | 0.012 |  |
| O=C(Nc1ccc([N+](=O)[O-])cc1Cl)c1cc(C(F)(F)F)ccc1O | 16 µg/mL | 2 µg/mL | > 1020 µg/mL | 0.023 |  |
| O=C(Nc1ccc([N+](=O)[O-])cc1Cl)c1cccc(F)c1O | 32 µg/mL | 1 µg/mL |  | 0.129 |  |
| Cc1ccc(O)c(C(=O)Nc2ccc([N+](=O)[O-])cc2Cl)c1 | 1 µg/mL | 4 µg/mL | > 1020 µg/mL | 0.017 |  |
| O=C(Nc1ccc(S)cc1)c1cc(Cl)ccc1O | > 32 µg/mL | > 32 µg/mL | > 1020 µg/mL |  |  |
| O=C(Nc1ccc([N+](=O)[O-])cc1Cl)c1cccc(Cl)c1 | > 32 µg/mL | > 32 µg/mL | > 1020 µg/mL |  |  |
| O=C(Nc1ccc([N+](=O)[O-])cc1Cl)c1cc(Cl)ccc1OC(=O)[C@@H]1CCCN1 | 16 µg/mL | 16 µg/mL | > 1020 µg/mL | 0.078 |  |
| O=C(Nc1ccc([N+](=O)[O-])cc1Cl)c1ccc(F)cc1O | 16 µg/mL | 1 µg/mL |  | 0.066 |  |
| O=C(Nc1ccc([N+](=O)[O-])cc1Cl)c1ccccc1 | > 32 µg/mL | > 32 µg/mL | > 1020 µg/mL |  |  |
| O=C(Nc1ccc([N+](=O)[O-])cc1Cl)c1cc(Cl)ccc1O[C@H]1O[C@H](CO)[C@H](O)[C@H](O)[C@H]1O | 32 µg/mL | 16 µg/mL | > 1020 µg/mL | 0.094 |  |
| CC(=O)N1CCc2cc(NC(=O)c3cc(F)ccc3O)ccc21 |  |  | > 1020 µg/mL |  |  |
| O=C(Nc1ccc(S(=O)(=O)N2CCOCC2)cc1)c1cc(F)ccc1O |  |  | > 1020 µg/mL |  |  |
| O=C(Nc1ccc(O)cc1Cl)c1cc(F)ccc1O |  |  | > 1020 µg/mL |  |  |
| O=C(Nc1ccc(O)cc1Cl)c1cc(Cl)ccc1O | 32 µg/mL | 4 µg/mL |  | 0.141 |  |

| SMILES | MIC [1] | MIC [2] | MIC [3] | fractional inhibitory concentration index (FICI) [4] | further results |
| --- | --- | --- | --- | --- | --- |
| O=C(Nc1ccc([N+](=O)[O-])cc1Cl)c1cc(Br)ccc1O | 32 µg/mL | 1 µg/mL | > 1020 µg/mL | 0.066 |  |
| O=C(Nc1ccc2[nH]c(=O)sc2c1)c1cc(F)ccc1O |  |  | > 1020 µg/mL |  |  |
| O=C(Nc1cc(Cl)ccc1O)c1ccc([N+](=O)[O-])cc1Cl | 16 µg/mL | 4 µg/mL | > 1020 µg/mL | 0.031 |  |
| O=C(Oc1ccc([N+](=O)[O-])cc1Cl)c1cc(Cl)ccc1O | 16 µg/mL | 8 µg/mL |  | 0.141 |  |
| O=C(Nc1ccc([N+](=O)[O-])cc1Cl)c1ccncc1 | > 32 µg/mL | > 32 µg/mL | > 1020 µg/mL |  |  |
| O=C(Nc1ccc([N+](=O)[O-])cc1Cl)c1cc(F)c(F)cc1O | 8 µg/mL | 1 µg/mL | > 1020 µg/mL | 0.012 |  |
| O=C(Nc1ccc([N+](=O)[O-])cc1Cl)c1cc(Cl)ccc1O [NICLOSAMIDE] | 2 µg/mL | 2 µg/mL |  | 0.01 |  |
| O=C(Nc1ccc([N+](=O)[O-])cc1Cl)c1ccccc1O | 2 µg/mL | 2 µg/mL | > 1020 µg/mL | 0.01 |  |
| O=C(Nc1ccc([N+](=O)[O-])cc1O)c1cc(Cl)ccc1O | 4 µg/mL | 4 µg/mL |  | 0.078 |  |
| O=C(Nc1ccc([N+](=O)[O-])cc1Cl)c1cc(O)ccc1O | > 32 µg/mL | > 32 µg/mL | > 1020 µg/mL |  |  |
| COc1ccc(O)c(C(=O)Nc2ccc([N+](=O)[O-])cc2Cl)c1 | 8 µg/mL | 4 µg/mL | > 1020 µg/mL | 0.023 |  |
| O=C(Nc1ccc(N2CCOCC2=O)cc1)c1cc(F)ccc1O |  |  | > 1020 µg/mL |  |  |
| O=C(Nc1ccc(O)cc1Cl)c1ccc(Br)cc1O |  |  | > 1020 µg/mL |  |  |
| Nc1ccc(NC(=O)c2cc(Cl)ccc2O)c(Cl)c1 | 16 µg/mL | 8 µg/mL | > 1020 µg/mL | 0.047 |  |
| O=C(Nc1ccc([N+](=O)[O-])cc1Cl)c1cc(F)ccc1O | 4 µg/mL | 1 µg/mL | > 1020 µg/mL | 0.008 | Activity [5]: >5 log10CFU/ml; MIC [6]: 1 µg/mL; MIC [7]: 0.25 µg/mL; Survival [8]: 7.31%; Activity [9]: Non-Toxic; Activity [10]: Non-Toxic; Activity [11]: Non-Toxic; Activity [12]: Non-Toxic; Activity [13]: Non-Toxic; Activity [14]: Non-Toxic; inhibition [15]: Active; Activity [16]: 2.88 log10CFU/ml; Activity [17]: 100%; fold change (FC) [18]: 256; fold change (FC) [19]: 16; fold change (FC) [20]: 16; Activity [21]: Active; mortality at 2 h [22]: 80%; Activity [23]: Non-Toxic; inhibition [24]: Active |
| O=C(Nc1ccccc1Cl)c1cc(Cl)ccc1O | 4 µg/mL | 2 µg/mL | > 1020 µg/mL | 0.012 |  |
| O=C(O)c1ccc(NC(=O)c2cc(Cl)ccc2O)c(Cl)c1 | > 32 µg/mL | > 32 µg/mL | > 1020 µg/mL |  |  |
| CC[C@H](C)CCCCC(=O)N[C@@H](CCN)C(=O)N[C@H](C(=O)N[C@@H](CCN)C(=O)N[C@H]1CCNC(=O)[C@H]([C@@H](C)O)NC(=O)[C@H](CCN)NC(=O)[C@H](CCN)NC(=O)[C@H](CC(C)C)NC(=O)[C@@H](Cc2ccccc2)NC(=O)[C@H](CCN)NC1=O)[C@@H](C)O (X1-[Dab]T[Dab][Dab][Dab][dF]L[Dab][Dab]T; lactam 4-C) |  |  | 256 µg/mL (≈ 0.213 mM) |  | Activity [25]: 6.38 log10CFU/ml; MIC [26]: 8190 µg/mL; fold change (FC) [27]: 32; Activity [28]: Active |
